The values below come from US7939546B2, “Quinoline derivatives for modulating DNA methylation” (SuperGen, Inc., priority 2007, dated 2011).

Structures can show the parent of a compound that is named as a salt.

In one series the target is DNMT1 (Homo sapiens, UniProt P26358). As to the kind of experiment: Selective depletion of DNMT1 by Western blot in treated HCT116 cells. It counts as cell-based. Also on record: Protein extracts (equivalent to 100 μg) were isolated from HCT116 cells; endogenous in cells; host or cells: HCT116. To be noted: for % DNMT1 protein level remaining at 5 µM: HCT-116, 5 μM; for % DNMT1 protein level remaining at 10 µM: HCT-116, 10 μM. From the text: Biol. 2005, 11, 4727-41.]. For DNMT1, commercially available antibodies from Santa Cruz or New England Biolabs were used.
(In general: A western blot detects proteins with antibodies after separation by electrophoresis.)

Sequence of DNMT1 (P26358 whole entry): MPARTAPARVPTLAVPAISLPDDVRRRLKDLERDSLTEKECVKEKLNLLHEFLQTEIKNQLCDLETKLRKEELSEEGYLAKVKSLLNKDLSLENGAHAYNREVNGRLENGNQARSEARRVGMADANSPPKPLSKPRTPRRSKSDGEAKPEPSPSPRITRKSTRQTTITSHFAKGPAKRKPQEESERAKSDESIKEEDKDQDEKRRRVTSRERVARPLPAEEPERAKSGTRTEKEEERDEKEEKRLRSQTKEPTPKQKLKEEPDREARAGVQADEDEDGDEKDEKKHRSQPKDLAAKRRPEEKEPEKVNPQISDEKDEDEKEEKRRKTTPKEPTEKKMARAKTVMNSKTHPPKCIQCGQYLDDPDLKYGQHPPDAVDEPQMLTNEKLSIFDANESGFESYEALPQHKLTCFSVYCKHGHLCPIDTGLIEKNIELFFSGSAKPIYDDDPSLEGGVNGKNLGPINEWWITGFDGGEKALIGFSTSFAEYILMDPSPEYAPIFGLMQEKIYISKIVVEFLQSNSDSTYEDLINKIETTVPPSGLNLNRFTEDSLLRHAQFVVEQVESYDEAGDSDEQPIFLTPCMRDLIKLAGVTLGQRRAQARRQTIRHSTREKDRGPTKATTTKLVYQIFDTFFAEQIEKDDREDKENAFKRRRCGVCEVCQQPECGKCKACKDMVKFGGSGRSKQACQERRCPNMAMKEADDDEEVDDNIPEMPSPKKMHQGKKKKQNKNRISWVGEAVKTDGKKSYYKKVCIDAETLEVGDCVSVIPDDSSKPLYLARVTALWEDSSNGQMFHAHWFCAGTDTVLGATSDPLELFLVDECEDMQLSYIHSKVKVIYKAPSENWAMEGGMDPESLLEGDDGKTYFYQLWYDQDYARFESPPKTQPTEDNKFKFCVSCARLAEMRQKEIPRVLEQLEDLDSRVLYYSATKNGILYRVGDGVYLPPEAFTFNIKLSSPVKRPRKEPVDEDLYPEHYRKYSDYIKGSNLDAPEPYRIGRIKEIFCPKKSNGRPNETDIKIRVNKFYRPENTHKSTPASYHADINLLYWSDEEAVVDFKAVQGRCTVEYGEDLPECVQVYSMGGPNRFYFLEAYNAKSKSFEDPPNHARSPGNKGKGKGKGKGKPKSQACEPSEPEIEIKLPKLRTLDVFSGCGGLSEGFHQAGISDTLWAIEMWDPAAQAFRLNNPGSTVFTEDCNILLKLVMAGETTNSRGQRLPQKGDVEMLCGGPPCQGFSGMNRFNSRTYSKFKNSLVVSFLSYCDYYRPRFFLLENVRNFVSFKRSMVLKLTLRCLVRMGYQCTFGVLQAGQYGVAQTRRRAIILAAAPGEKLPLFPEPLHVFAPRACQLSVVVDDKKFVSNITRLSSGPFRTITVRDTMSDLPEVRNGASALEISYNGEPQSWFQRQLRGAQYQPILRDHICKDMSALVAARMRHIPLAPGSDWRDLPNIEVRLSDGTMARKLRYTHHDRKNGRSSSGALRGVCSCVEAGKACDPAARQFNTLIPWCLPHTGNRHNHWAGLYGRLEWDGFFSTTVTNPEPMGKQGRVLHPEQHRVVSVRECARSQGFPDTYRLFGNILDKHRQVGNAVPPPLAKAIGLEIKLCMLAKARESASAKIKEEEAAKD

In the case of `C[n+]1ccc(Nc2cccc(NC(=O)c3ccc(Nc4ccnc5ccccc45)cc3)c2)cc1` (as salt: chloride) [Cpd. A, 1-methyl-4-(3-{[4-(4-quinolinylamino)benzoyl]amino}anilino)pyridinium chloride], the melting point was 253 to 257 °C.
As to `Cc1cc(Nc2cccc(C(=O)Nc3ccc(Nc4ccnc5ccc(N(C)C)cc45)cc3)c2)nc(N)n1` (as salt: chloride) [Cpd. EE, 4-[4-({3-[(2-amino-6-methyl-4-pyrimidinyl)amino]benzoyl}amino)anilino]-6-(dimethylamino)quinolinium chloride], the melting point is > 300 °C.
Regarding `C[n+]1ccc(Nc2cccc(NC(=O)c3ccc(Nc4ccnc5ccc([N+](=O)[O-])cc45)cc3)c2)cc1` (as salt: chloride) [Cpd. F, 1-methyl-4-(3-{[4-(6-nitro-4-quinolinylamino)benzoyl]amino}anilino)pyridinium chloride], the melting point lay within 273 to 277 °C.
Take `C[n+]1ccc(Nc2ccc(C(=O)Nc3ccc(Nc4ccnc5ccc(N)cc45)cc3)cc2)cc1` (as salt: chloride) [Cpd. N, 4-[4-({4-[(6-amino-4-quinolinyl)amino]anilino}carbonyl)anilino]-1-methylpyridinium chloride]: the melting point is > 300 °C.
Take `C/C(=N\N=C(N)N)c1cccc(C(=O)Nc2ccc(Nc3ccnc4ccc(N(C)C)cc34)cc2)c1` (as salt: chloride) [Cpd. QQ, 4-[4-({3-[(1E)-N-(diaminomethylene)ethanehydrazonoyl]-benzoyl}amino)anilino]-6-(dimethylamino)quinolinium chloride]: the melting point was > 280 °C.
As for `C[n+]1ccc(Nc2cccc(NC(=O)c3ccc(Nc4ccnc5cc([N+](=O)[O-])ccc45)cc3)c2)cc1` (as salt: chloride) [Cpd. R, 1-methyl-4-[3-({4-[(7-nitro-4-quinolinyl)amino]benzoyl}amino)anilino]pyridinium chloride], the melting point was 303 °C (dec.).
For `C[n+]1ccc(Nc2ccc(NC(=O)c3ccc(Nc4ccnc5ccccc45)cc3)cc2)cc1` (as salt: hydrochloride) [Cpd. B, 1-methyl-4-(4-(4-(quinolin-4-ylamino)benzamido)phenylamino)pyridinium chloride hydrochloride], the melting point was > 300 °C.
As to `Cc1cc(Nc2cccc(C(=O)Nc3ccc(Nc4ccnc5ccc(N(C)C)cc45)cc3)c2)nc(N)n1` [Cpd. EE, 4-[4-({3-[(2-amino-6-methyl-4-pyrimidinyl)amino]benzoyl}amino)anilino]-6-(dimethylamino)quinolinium chloride], at DNMT1, the % DNMT1 protein level remaining at 5 µM came out at 30% and the % DNMT1 protein level remaining at 10 µM was determined as 10%.
Consider `Cl.Cl.O=C(Nc1ccc(Nc2ccncc2)cc1)c1ccc(Nc2ccnc3ccccc23)cc1` [Cpd. EEE2, n-[4-(pyridin-4-ylamino)phenyl]-4-(quinolin-4-ylamino)benzamide dihydrochloride], for which the “% DNMT1 Level” value at DNMT1 (5 μM) is 3%; at DNMT1 (10 μM), 0%.
Take `Cc1cc(Nc2cccc(C(=O)Nc3ccc(Nc4ccnc5ccccc45)cc3)c2)nc(N)n1` [Cpd. FF1, 3-[(2-amino-6-methyl-4-pyrimidinyl)amino]-N-[4-(4-quinolinylamino)phenyl]benzamide dihydrochloride]: at DNMT1, the % DNMT1 protein level remaining at 5 µM amounted to 15% and the % DNMT1 protein level remaining at 10 µM turned out to be 5%.
As to `Nc1cc(Nc2cccc(C(=O)Nc3ccc(Nc4ccnc5ccccc45)cc3)c2)nc(N)n1` [Cpd. FF2, 3-[(2,6-Diamino-4-pyrimidinyl)amino]-N-[4-(4-quinolinylamino)-phenyl]benzamide dihydrochloride], at DNMT1, the % DNMT1 protein level remaining at 5 µM stood at 85% and the % DNMT1 protein level remaining at 10 µM is 83%.
`C[n+]1ccc(Nc2ccc(NC(=O)c3ccc(Nc4ccnc5ccc([N+](=O)[O-])cc45)cc3)cc2)cc1` [Cpd. G, 1-methyl-4-(4-(4-(6-nitroquinolin-4-ylamino)benzamido)phenylamino)pyridinium chloride hydrochloride]: on DNMT1, the % DNMT1 protein level remaining at 5 µM came to 95% and the % DNMT1 protein level remaining at 10 µM came out at 95%. Besides, the % DNMT1 protein level remaining at 100 µM on DNMT1 (HCT-116, 100 μM) came to 100%.
As for `Cc1cc(Nc2ccc(C(=O)Nc3ccc(Nc4ccnc5ccccc45)cc3)cc2)nc(N)n1` [Cpd. GG1, 4-[(2-amino-6-methyl-4-pyrimidinyl)amino]-N-[4-(4-quinolinylamino)phenyl]benzamide dihydrochloride], at DNMT1, the % DNMT1 protein level remaining at 5 µM stood at 25% and the % DNMT1 protein level remaining at 10 µM came to 20%.
Take `Cc1cc(Nc2ccc(C(=O)Nc3ccc(Nc4ccnc5cc(N)ccc45)cc3)cc2)nc(N)n1` [Cpd. GG2, 4-[(2-Amino-6-methyl-4-pyrimidinyl)amino]-N-{4-[(7-amino-4-quinolinyl)amino]phenyl}benzamide dihydrochloride]: on DNMT1, the % DNMT1 protein level remaining at 5 µM came to 85% and the % DNMT1 protein level remaining at 10 µM amounted to 52%.
For `Cc1cc(Nc2ccc(C(=O)Nc3ccc(Nc4ccnc5ccc(N)cc45)cc3)cc2)nc(N)n1` [Cpd. GG3, 4-[(2-amino-6-methyl-4-pyrimidinyl)amino]-N-{4-[(6-amino-4-quinolinyl)amino]phenyl}benzamide dihydrochloride], on DNMT1, the % DNMT1 protein level remaining at 5 µM was determined as 110% and the % DNMT1 protein level remaining at 10 µM turned out to be 10%.
Turning to `Cc1cc(Nc2ccc(C(=O)Nc3ccc(Nc4ccnc5ccc([N+](=O)[O-])cc45)cc3)cc2)nc(N)n1` [Cpd. GG4, 4-[(2-Amino-6-methyl-4-pyrimidinyl)amino]-N-{4-[(6-nitro-4-quinolinyl)amino]phenyl}benzamide dihydrochloride], the % DNMT1 protein level remaining at 10 µM at DNMT1 is 90%.
Consider `Cc1cc(Nc2ccc(C(=O)Nc3ccc(Nc4ccnc5cc([N+](=O)[O-])ccc45)cc3)cc2)nc(N)n1` [Cpd. GG5, 4-[(2-Amino-6-methyl-4-pyrimidinyl)amino]-N-{4-[(7-nitro-4-quinolinyl)amino]phenyl}benzamide dihydrochloride], for which, on DNMT1, the % DNMT1 protein level remaining at 10 µM was 90%.
In the case of `Cc1cc(Nc2ccc(C(=O)Nc3ccc(Nc4ccnc5ccc(N(C)C)cc45)cc3)cc2)nc(N)n1` [Cpd. HH, 4-[(2-amino-6-methyl-4-pyrimidinyl)amino]-N-(4-{[6-(dimethylamino)-4-quinolinyl]amino}phenyl)benzamide dihydrochloride], at DNMT1, the % DNMT1 protein level remaining at 10 µM stood at 90%.
Regarding `C/C(=N\N=C(N)N)c1cccc(NC(=O)c2ccc(Nc3ccnc4ccc(N(C)C)cc34)cc2)c1` [Cpd. JJ1, (E)-N-[3-(1-{(diaminomethylene)hydrazono}ethyl)phenyl]-4-[6-(dimethylamino)quinolin-4-ylamino]benzamide dihydrochloride], at DNMT1, the % DNMT1 protein level remaining at 5 µM came to 75% and the % DNMT1 protein level remaining at 10 µM stood at 70%.
Take `C/C(=N\N=C(N)N)c1cccc(NC(=O)c2ccc(Nc3ccnc4ccccc34)cc2)c1` [Cpd. JJ2, (E)-N-[3-(1-{(Diaminomethylene)hydrazono}ethyl)phenyl]-4-(quinolin-4-ylamino)benzamide dihydrochloride]: at DNMT1, the % DNMT1 protein level remaining at 5 µM stood at 147% and the % DNMT1 protein level remaining at 10 µM was 130%.
Take `Cc1cc(Nc2ccc(NC(=O)c3ccc(Nc4ccnc5c(F)c(F)c(F)cc45)cc3)cc2)nc(N)n1` [Cpd. KK, n-[4-(2-amino-6-methylpyrimidin-4-ylamino)phenyl]-4-(6,7,8-trifluoroquinolin-4-ylamino)benzamide dihydrochloride]: at DNMT1, the % DNMT1 protein level remaining at 5 µM is 82% and the % DNMT1 protein level remaining at 10 µM amounted to 20%.
With `C/C(=N\N=C(N)N)c1ccc(NC(=O)c2ccc(Nc3ccnc4ccc(N(C)C)cc34)cc2)cc1` [Cpd. NN, (E)-N-(4-(1-((Diaminomethylene)hydrazono)ethyl)phenyl)-4-(6-(dimethylamino)quinolin-4-ylamino)benzamide Dihydrochloride], at DNMT1, the % DNMT1 protein level remaining at 5 µM stood at 70% and the % DNMT1 protein level remaining at 10 µM was 70%.
On to `C/C(=N\N=C(N)N)c1ccc(C(=O)Nc2ccc(Nc3ccnc4ccc(N(C)C)cc34)cc2)cc1` [Cpd. PP, 4-[(1E)-N-(diaminomethylene)ethanehydrazonoyl]-N-(4-{[6-(dimethylamino)-4-quinolinyl]amino}phenyl)benzamide dihydrochloride], for which, at DNMT1, the % DNMT1 protein level remaining at 5 µM stood at 60% and the % DNMT1 protein level remaining at 10 µM is 70%.
`C/C(=N\N=C(N)N)c1cccc(C(=O)Nc2ccc(Nc3ccnc4ccc(N(C)C)cc34)cc2)c1` [Cpd. QQ, 4-[4-({3-[(1E)-N-(diaminomethylene)ethanehydrazonoyl]-benzoyl}amino)anilino]-6-(dimethylamino)quinolinium chloride]: on DNMT1, the % DNMT1 protein level remaining at 5 µM was determined as 60% and the % DNMT1 protein level remaining at 10 µM came to 50%.
Turning to `Nc1cc(Nc2cccc(C(=O)Nc3ccc(Nc4ccnc5ccc([N+](=O)[O-])cc45)cc3)c2)nc(N)n1` [Cpd. RR1, 3-[(2,6-diamino-4-pyrimidinyl)amino]-N-{4-[(6-nitro-4-quinolinyl)amino]phenyl}benzamide dihydrochloride], the % DNMT1 protein level remaining at 10 µM on DNMT1 turned out to be 100%.
The same measure, in the same setting: to `Cc1cc(Nc2cccc(C(=O)Nc3ccc(Nc4ccnc5ccc([N+](=O)[O-])cc45)cc3)c2)nc(N)n1` [RR2, 3-[(2-amino-6-methyl-4-pyrimidinyl)amino]-N-{4-[(6-nitro-4-quinolinyl)amino]phenyl}benzamide dihydrochloride] belongs 100%; to `Cc1cc(Nc2cccc(C(=O)Nc3ccc(Nc4ccnc5ccc(N)cc45)cc3)c2)nc(N)n1` [RR3, 3-[(2-Amino-6-methyl-4-pyrimidinyl)amino]-N-{4-[(6-amino-4-quinolinyl)amino]phenyl}benzamide dihydrochloride], 100%.

The melting point is the temperature of the solid-liquid transition.
